Data taken from patent publication US4220644A, “7-Acylamino-3-(substituted tetrazolyl thiomethyl) cephalosporins” (SmithKline Corporation, priority 1976, dated 1980).
In brackets after ≈: the same amount, converted by molar mass. Read-outs that look alike come from different tables or passages of the source.

How the values were obtained:
E. coli 12140 = assay: In vivo mouse protection (Table 2), E. coli 12140
Description: (§1) Compound names corresponding to numbers are given in the experimental section. For comparative purposes, data for cephamandole, which is 7-mandelamido-3-(1-methyltetrazol-5-ylthiomethyl)-3-cephem-4-carboxylic acid, is also given in Tables 1 and 2.

Serra. Marc. ATCC 13880 = assay: MIC in vitro (Table 1), Serra. Marc. ATCC 13880; format: cell-based
Description: as §1

Kleb. pneumo. 4200 = assay: In vivo mouse protection (Table 2), Kleb. pneumo. 4200
Description: as §1

Strep. Faecalis HH 34358 = assay: MIC in vitro (Table 1), Strep. Faecalis HH 34358; format: cell-based; conditions: Enterococcus faecalis
Description: as §1

Shigella HH 117 = assay: MIC in vitro (Table 1), Shigella HH 117; format: cell-based; conditions: Shigella, HH117, in vitro, read-out: MIC
Description: as §1, with “The compounds of Formula I have antibacterial activity against both Gram-positive and Gram-negative organisms. […] Compound” for “Compound”

Pseudo. sp. HH 63 = assay: MIC in vitro (Table 1), Pseudo. sp. HH 63; format: cell-based; conditions: in vitro, Pseudo. sp. HH 63; read-out: MIC
Description: as §1, with “The compounds of Formula I have antibacterial activity against both Gram-positive and Gram-negative organisms. […] Compound” for “Compound”

Proteus morgani 179 = assay: MIC in vitro (Table 1), Proteus morgani 179; format: cell-based; conditions: read-out: MIC
Description: as §1

Kleb. pneumo. SK 4200 = assay: MIC in vitro (Table 1), Kleb. pneumo. SK 4200; format: cell-based
Description: as §1

Kleb. pneumo. SK 1200 = assay: MIC in vitro (Table 1), Kleb. pneumo. SK 1200; format: cell-based
Description: as §1

Salmonella ATCC 12176 = assay: MIC in vitro (Table 1), Salmonella ATCC 12176; format: cell-based; conditions: Salmonella, ATCC12176, in vitro, read-out: MIC
Description: as §1, with “The compounds of Formula I have antibacterial activity against both Gram-positive and Gram-negative organisms. […] Compound” for “Compound”

E. coli SK 12140 = assay: MIC in vitro (Table 1), E. coli SK 12140; format: cell-based; conditions: Escherichia coli, SK12140, in vitro
Description: as §1

E. coli HH 33779 = assay: MIC in vitro (Table 1), E. coli HH 33779; format: cell-based; conditions: Escherichia coli, HH33779, in vitro, E. coli HH 33779; read-out: MIC
Description: as §1

S. aureus HH 127 = assay: MIC in vitro (Table 1), S. aureus HH 127; format: cell-based; conditions: Staphylococcus aureus
Description: as §1

[1] = tested on: Entero. aerog. ATCC 13048; assay: MIC in vitro (Table 1), Entero. aerog. ATCC 13048; format: cell-based
Description: as §1

S. villaluz = assay: MIC in vitro (Table 1), S. villaluz; format: cell-based; conditions: read-out: MIC
Description: as §1, with “The compounds of Formula I have antibacterial activity against both Gram-positive and Gram-negative organisms. […] Compound” for “Compound”

S. aureus SK 23390 = assay: MIC in vitro (Table 1), S. aureus SK 23390; format: cell-based; conditions: Staphylococcus aureus
Description: as §1

Entero. cloacae HH 31254 = assay: MIC in vitro (Table 1), Entero. cloacae HH 31254; format: cell-based; conditions: Enterobacter cloacae
Description: as §1

[2] = Escherichia coli, 12140, po, E. coli 12140, p.o.
[3] = Escherichia coli, 12140, sc, E. coli 12140, s.c.
[4] = in vitro, Strep. Faecalis HH 34358, read-out: MIC
[5] = in vitro, Kleb. pneumo. SK 4200, read-out: MIC
[6] = SK23390, in vitro, S. aureus SK 23390, read-out: MIC
[7] = in vitro, Serra. Marc. ATCC 13880, read-out: MIC
[8] = HH127, in vitro, S. aureus HH 127, read-out: MIC
[9] = in vitro, Entero. aerog. ATCC 13048, read-out: MIC
[10] = HH31254, in vitro, Entero. cloacae HH 31254, read-out: MIC

Row | SMILES | ED50 (E. coli 12140; [2]) | ED50 (E. coli 12140; [3]) | ED50 (Kleb. pneumo. 4200; po, Kleb. pneumo. 4200, p.o.) | ED50 (Kleb. pneumo. 4200; sc, Kleb. pneumo. 4200, s.c.) | MIC (Strep. Faecalis HH 34358; [4]) | MIC (Shigella HH 117) | MIC (Pseudo. sp. HH 63) | MIC (Proteus morgani 179) | MIC (Kleb. pneumo. SK 4200; [5]) | MIC (Salmonella ATCC 12176) | MIC (E. coli SK 12140) | MIC (E. coli HH 33779) | MIC (S. villaluz) | MIC (S. aureus SK 23390; [6]) | MIC (Serra. Marc. ATCC 13880; [7]) | MIC (Kleb. pneumo. SK 1200) | MIC (S. aureus HH 127; [8]) | MIC [1, 9] | MIC (S. aureus SK 23390; SK23390) | MIC (Entero. cloacae HH 31254; [10]) | other results
1 | NC(=O)CCCn1nnnc1SCC1=C(C(=O)O)N2C(=O)C(NC(=O)[C@H](O)c3ccccc3)[C@H]2SC1 (stereo partly drawn) [XI, 7-D-Mandelamido-3-[1-(3-carbamoylpropyl)tetrazol-5-ylthiomethyl]-3-cephem-4-carboxylic acid] | > 50 mg/kg | 1.56 mg/kg | 25 mg/kg | 0.37 mg/kg | 50 µg/mL (≈ 93.7 µM) | 0.4 µg/mL (≈ 0.75 µM) | > 200 µg/mL | 0.8 µg/mL (≈ 1.5 µM) | 0.8 µg/mL (≈ 1.5 µM) | 0.8 µg/mL (≈ 1.5 µM) | 0.4 µg/mL (≈ 0.75 µM) | 3.1 µg/mL (≈ 5.81 µM) | 50 µg/mL (≈ 93.7 µM) | 3.1 µg/mL (≈ 5.81 µM) |  |  |  |  |  |  | MIC (Serra. Marc. ATCC 13880): 25 µg/mL (≈ 46.9 µM); MIC (Kleb. pneumo. SK 1200; read-out: MIC): 0.8 µg/mL (≈ 1.5 µM); MIC (S. aureus HH 127; HH127): 3.1 µg/mL (≈ 5.81 µM); MIC [1]: 3.1 µg/mL (≈ 5.81 µM); MIC (Entero. cloacae HH 31254; HH31254): 3.1 µg/mL (≈ 5.81 µM)
2 | O=C(O)CCn1nnnc1SCC1=C(C(=O)O)N2C(=O)C(NC(=O)CSC(F)(F)F)[C@H]2SC1 (stereo partly shown) [XV, 7-Trifluoromethylmercaptoacetamido-3-[1-(2-carboxyethyl)tetrazol-5-ylthiomethyl]-3-cephem-4-carboxylic acid] | > 50 mg/kg | 1.56 mg/kg | 46 mg/kg | 1.12 mg/kg | 50 µg/mL (≈ 94.6 µM) | 0.8 µg/mL (≈ 1.51 µM) |  | > 200 µg/mL | 0.8 µg/mL (≈ 1.51 µM) | 0.4 µg/mL (≈ 0.757 µM) |  | 3.1 µg/mL (≈ 5.87 µM) | 25 µg/mL (≈ 47.3 µM) |  | 200 µg/mL (≈ 378 µM) | 0.4 µg/mL (≈ 0.757 µM) | 1.6 µg/mL (≈ 3.03 µM) | 6.3 µg/mL (≈ 11.9 µM) | 0.8 µg/mL (≈ 1.51 µM) | 0.8 µg/mL (≈ 1.51 µM) | MIC (E. coli SK 12140; read-out: MIC): 0.8 µg/mL (≈ 1.51 µM)
3 | NC(=O)CCn1nnnc1SCC1=C(C(=O)O)N2C(=O)C(NC(=O)CSC(F)(F)F)[C@H]2SC1 (stereo partly shown) [XVI, 7-Trifluoromethylmercaptoacetamido-3-[1-(2-carbamoylethyl)tetrazol-5-ylthiomethyl]-3-cephem-4-carboxylic acid] | 25 mg/kg | 0.78 mg/kg |  | 0.54 mg/kg |  | 0.2 µg/mL (≈ 0.379 µM) | > 200 µg/mL | 12.5 µg/mL (≈ 23.7 µM) | 0.8 µg/mL (≈ 1.52 µM) | 0.4 µg/mL (≈ 0.758 µM) | 0.4 µg/mL (≈ 0.758 µM) | 1.6 µg/mL (≈ 3.03 µM) | 6.3 µg/mL (≈ 11.9 µM) |  |  | 0.4 µg/mL (≈ 0.758 µM) | 0.4 µg/mL (≈ 0.758 µM) | 1.6 µg/mL (≈ 3.03 µM) | 0.8 µg/mL (≈ 1.52 µM) | 0.4 µg/mL (≈ 0.758 µM) | MIC (Strep. Faecalis HH 34358): 12.5 µg/mL (≈ 23.7 µM)
4 | NC(=O)Cn1nnnc1SCC1=C(C(=O)O)N2C(=O)C(NC(=O)CSC(F)(F)F)[C@H]2SC1 (stereo partly shown) [XVII, 7-Trifluoromethylmercaptoacetamido-3-(1-carbamoylmethyltetrazol-5-ylthiomethyl)-3-cephem-4-carboxylic acid] | 6.25 mg/kg | 0.28 mg/kg | 15.5 mg/kg | 0.78 mg/kg | 25 µg/mL (≈ 48.7 µM) | 0.2 µg/mL (≈ 0.389 µM) |  | 200 µg/mL (≈ 389 µM) | 0.8 µg/mL (≈ 1.56 µM) | 0.4 µg/mL (≈ 0.779 µM) | 0.4 µg/mL (≈ 0.779 µM) | 3.1 µg/mL (≈ 6.04 µM) | 12.5 µg/mL (≈ 24.3 µM) |  | 100 µg/mL (≈ 195 µM) | 0.4 µg/mL (≈ 0.779 µM) | 0.4 µg/mL (≈ 0.779 µM) | 1.6 µg/mL (≈ 3.12 µM) | 0.4 µg/mL (≈ 0.779 µM) | 0.8 µg/mL (≈ 1.56 µM) | 
5 | O=C(O)Cn1nnnc1SCC1=C(C(=O)O)N2C(=O)C(NC(=O)CSC(F)(F)F)[C@H]2SC1 (stereo partly shown) [XVIII, 7-Trifluoromethylmercaptoacetamido-3-(1-carboxymethyltetrazol-5-ylthiomethyl)-3-cephem-4-carboxylic acid] |  | 3.1 mg/kg |  | 0.4 mg/kg | 100 µg/mL (≈ 194 µM) | 3 µg/mL (≈ 5.83 µM) |  | 200 µg/mL (≈ 389 µM) |  | 0.8 µg/mL (≈ 1.55 µM) |  | 6 µg/mL (≈ 11.7 µM) | 100 µg/mL (≈ 194 µM) | 3 µg/mL (≈ 5.83 µM) | > 200 µg/mL | 0.4 µg/mL (≈ 0.777 µM) | 3 µg/mL (≈ 5.83 µM) | 13 µg/mL (≈ 25.3 µM) |  | 3 µg/mL (≈ 5.83 µM) | MIC (Kleb. pneumo. SK 4200): 0.4 µg/mL (≈ 0.777 µM); MIC (E. coli SK 12140; read-out: MIC): 0.8 µg/mL (≈ 1.55 µM)
